Measurements as given in patent US12059453B2, “Blood plasma fractions for use in muscle regeneration” (Alkahest, Inc., priority 2019, dated 2024).

Tested on: C2C12 cells
Test: IGF-1 versus PPF1 dose-response on glucose utilization, C2C12 cells in 2% horse serum
Type: cell-based
Settings: treatment day 5, read day 6
Procedure: FIG. 16A and FIG. 16B report the effects of insulin-like growth factor-1 (IGF-1) on glucose utilization in C2C12 cells treated in 2% horse serum. Cells were plated in DMEM plus 4.5 g/L of glucose and 10% fetal bovine serum (FBS) at Day −2 (d−2). At Day 0 (d0) media was refreshed with DMEM plus 1 g/L glucose and 2% horse serum. At Day 5 (d5) various treatments were added with glucose utilization determined at Day 6 (d6). […] Recombinant human IGF1 was purchased from R&D Systems (Cat. 291-G1). […] IGF-1 is known to have an impact on metabolism of myotubes, and its presence in PPF1 has been calculated as approximately 14.88 ng/mL. […] Thus, other factors must necessarily be involved in the effects of PPF1.

EC50, glucose utilization: 0.01743 µg/mL
Substance: recombinant human IGF-1: Recombinant human IGF1 purchased from R&D Systems (Cat. 291-G1)
